Source: patent US8163909B2, “Substituted hydroxyethyl amine compounds as beta-secretase modulators and methods of use” (Amgen Inc., priority 2007, dated 2012)
Like-named read-outs stand apart in the source and are kept apart here.

Key:
CYP3A4 (CYP3A) = CYP3A4 (CYP3A) (Homo sapiens, UniProt P08684); experiment: in vitro; details: microsomes, pH 7.4;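 further: inhibition of CYP3A-mediated 1-hydroxymidazolam formation after 10 min incubation with NADPH, quantified by HPLC MS relative to metabolite produced without test compound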
Sequence of CYP3A4 (CYP3A) (P08684 2-503): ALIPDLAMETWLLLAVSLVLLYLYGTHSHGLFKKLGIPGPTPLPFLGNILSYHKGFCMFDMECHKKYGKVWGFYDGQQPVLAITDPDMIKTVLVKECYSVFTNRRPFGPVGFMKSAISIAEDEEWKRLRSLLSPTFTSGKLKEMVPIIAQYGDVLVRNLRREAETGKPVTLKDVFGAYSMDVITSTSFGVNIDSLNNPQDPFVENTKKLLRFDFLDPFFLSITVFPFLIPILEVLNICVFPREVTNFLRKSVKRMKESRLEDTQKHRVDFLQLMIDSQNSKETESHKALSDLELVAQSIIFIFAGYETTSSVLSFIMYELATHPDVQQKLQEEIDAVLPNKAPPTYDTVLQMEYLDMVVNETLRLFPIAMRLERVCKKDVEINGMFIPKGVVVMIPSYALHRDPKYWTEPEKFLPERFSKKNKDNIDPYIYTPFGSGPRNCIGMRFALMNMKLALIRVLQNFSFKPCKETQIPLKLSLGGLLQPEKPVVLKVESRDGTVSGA

CYP2D6 = CYP2D6 (Homo sapiens, UniProt P10635); experiment: CYP2D6 inhibition assay (bufuralol, pooled human liver microsomes)
Sequence of CYP2D6 (P10635 whole entry): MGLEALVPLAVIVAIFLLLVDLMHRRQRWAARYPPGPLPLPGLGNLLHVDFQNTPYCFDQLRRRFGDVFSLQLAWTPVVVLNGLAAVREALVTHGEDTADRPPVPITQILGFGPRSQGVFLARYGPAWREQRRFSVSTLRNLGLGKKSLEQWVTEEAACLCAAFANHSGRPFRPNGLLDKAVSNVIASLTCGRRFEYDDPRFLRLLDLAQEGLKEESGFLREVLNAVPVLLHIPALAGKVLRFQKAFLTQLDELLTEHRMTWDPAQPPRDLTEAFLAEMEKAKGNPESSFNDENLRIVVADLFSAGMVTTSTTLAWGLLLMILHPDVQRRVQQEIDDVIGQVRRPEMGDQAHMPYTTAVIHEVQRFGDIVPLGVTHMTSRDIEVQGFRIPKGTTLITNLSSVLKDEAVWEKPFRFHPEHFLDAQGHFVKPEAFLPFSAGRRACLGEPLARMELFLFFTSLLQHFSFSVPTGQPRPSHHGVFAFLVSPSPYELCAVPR

[1] = Microsomal stability assay, rat liver microsomes;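 further: rat liver microsomes (0.25 mg/mL) with about 1 µM compound plus 1 mM NADPH, pH 7.4, 37 °C for 30 min, parent left measured by LC-MS/MS against 0 min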
[2] = target: Beta Secretase enzyme (BACE) (Homo sapiens, UniProt P56817); experiment: In vitro enzymatic BACE FRET (fluorescence resonance energy transfer) assay; assay type: biochemical;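 further: fluorescence read after 1 h with 50 nM quenched peptide substrate spanning the BACE cleavage site, in pH 4.2 acetate buffer containing 10% DMSO and nonionic detergent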
Sequence of Beta Secretase enzyme (BACE) (P56817 46-501): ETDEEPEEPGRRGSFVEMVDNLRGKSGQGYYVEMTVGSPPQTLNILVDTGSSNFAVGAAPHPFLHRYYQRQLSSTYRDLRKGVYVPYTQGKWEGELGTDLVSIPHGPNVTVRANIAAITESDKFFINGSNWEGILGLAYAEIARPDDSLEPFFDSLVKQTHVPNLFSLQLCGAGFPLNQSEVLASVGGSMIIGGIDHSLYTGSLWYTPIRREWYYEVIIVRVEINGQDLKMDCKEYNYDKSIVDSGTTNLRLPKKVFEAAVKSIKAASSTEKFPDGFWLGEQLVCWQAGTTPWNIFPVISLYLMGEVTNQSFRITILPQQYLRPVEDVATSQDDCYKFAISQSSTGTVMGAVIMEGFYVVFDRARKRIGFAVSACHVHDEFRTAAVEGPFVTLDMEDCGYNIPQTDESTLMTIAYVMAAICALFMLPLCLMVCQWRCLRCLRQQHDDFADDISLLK

[3] = Microsomal stability assay, human liver microsomes;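 further: pooled human liver microsomes at 0.25 mg/mL with 1 µM compound and NADPH at 37 °C, pH 7.4, for 30 min, unchanged parent quantified by LC-MS/MS against the 0 min sample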
[4] = system: Aβ40 in conditioned medium of cells stably expressing Amyloid Precursor Protein (APP); experiment: In vitro BACE cell-based assay (Aβ40 in conditioned medium, sandwich ELISA); details: Homo sapiens;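 further: compounds added as a dilution series, secreted peptide quantified by europium time-resolved fluorescence readout, potency fitted from percent of control versus compound concentration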
[5] = read-out: BACE1 FRET assay (IC50)
[6] = HEK293, HEK cells, read-out: HEK cell assay (IC50)
[7] = 2D6 IC50 (uM), CYP enzyme inhibition
[8] = BACE enzyme assay, read-out: BACE1 FRET assay
[9] = HEK293, HEK cells, read-out: HEK cell assay
[10] = BACE enzyme assay, IC50's in uM, read-out: BACE1 FRET assay
[11] = HEK293, HEK cell-based assay, IC50's in uM, read-out: HEK cell assay

COCC(=O)N[C@@H](Cc1cc(F)cc(F)c1)[C@H](O)CN[C@H]1CC2(CCC2)Oc2c1cc(CC(C)C)nc2Cl [compound 667]
IC50 (CYP3A4 (CYP3A)): 0.6 µM
IC50 (CYP2D6; 2D6 IC50, CYP2D6 inhibition): 6.3 µM
RLM ([1]; rat liver microsomes): 682 µL/min/mg
IC50 [2, 5]: 0.005 µM
HLM ([3]; human liver microsomes): 399 µL/min/mg
IC50 [4, 6]: 0.054 µM

CC(=O)N[C@@H](Cc1ccc(F)c(-c2ccco2)c1)[C@H](O)CN[C@H]1CC2(CCC2)Oc2ccc(CC(C)(C)C)cc21 [Example 432, N-((2S,3R)-4-((S)-2,2-spirocyclobutyl-6-neopentyl-3,4-dihydro-2H-chromen-4-ylamino)-1-(4-fluoro-3-(furan-2-yl)phenyl)-3-hydroxybutan-2-yl)acetamide]
IC50 (CYP3A4 (CYP3A)): 1.5 µM
IC50 (CYP2D6; 2D6 IC50, CYP2D6 inhibition): 3.1 µM
RLM ([1]; rat liver microsomes): 323 µL/min/mg
IC50 [2, 5]: 0.006 µM
HLM ([3]; human liver microsomes): 280 µL/min/mg
IC50 [4, 6]: 0.332 µM

COCC(=O)N[C@@H](Cc1cc(F)cc(-c2ccncc2)c1)[C@H](O)CN[C@H]1CC2(CCC2)Oc2ncc(CC(C)(C)C)cc21 [compound 613]
IC50 (CYP3A4 (CYP3A)): 0.16 µM
IC50 (CYP2D6; 2D6 IC50, CYP2D6 inhibition): 0.3 µM
RLM ([1]; rat liver microsomes): 142 µL/min/mg
IC50 [2, 5]: 0.02 µM
HLM ([3]; human liver microsomes): 228 µL/min/mg
IC50 [4, 6]: 0.011 µM

CO[C@H](C)C(=O)N[C@@H](Cc1cc(F)cc(F)c1)[C@H](O)CN[C@H]1CC2(CCC2)Oc2c(-c3cncs3)cc(CC(C)C)cc21 [compound 491]
IC50 (CYP3A4 (CYP3A)): 0.2 µM
IC50 (CYP2D6; [7]): 6.2 µM
RLM ([1]; rat liver microsomal data): 285 µL/min/mg
IC50 [2, 8]: 0.004 µM
HLM ([3]; human liver microsomal data): 345 µL/min/mg
IC50 [4, 9]: 0.036 µM

CO[C@H](C)C(=O)N[C@@H](Cc1cc(F)cc(F)c1)[C@H](O)CN[C@H]1CC2(CCC2)Oc2ncc(CC(C)(C)C#N)cc21 [compound 511]
IC50 (CYP3A4 (CYP3A)): 2.4 µM
IC50 (CYP2D6; [7]): 14.5 µM
RLM ([1]; rat liver microsomal data): 203 µL/min/mg
IC50 [2, 8]: 0.007 µM
HLM ([3]; human liver microsomal data): 382 µL/min/mg
IC50 [4, 9]: 0.011 µM

CO[C@H](C)C(=O)N[C@@H](Cc1cccc(C#N)c1)[C@H](O)CN[C@H]1CC2(CC(F)(F)C2)Oc2ncc(CC(C)(C)C)cc21 [compound 471]
IC50 (CYP3A4 (CYP3A)): 1.1 µM
IC50 (CYP2D6; 2D6 IC50, CYP enzyme inhibition): 10.3 µM
RLM ([1]; rat liver microsomal data): 536 µL/min/mg
IC50 ([2]; Table 2, read-out: BACE1 FRET assay): 0.004 µM
HLM ([3]; human liver microsomal data): 569 µL/min/mg
IC50 ([4]; HEK293, Table 2, HEK cells, read-out: HEK cell assay): 0.012 µM

CC(=O)N[C@@H](Cc1ccc2c(c1)OCO2)[C@H](O)CN[C@H]1CC2(CCC2)Oc2ncc(CC(F)(F)F)cc21 [compound 517]
IC50 (CYP3A4 (CYP3A)): 0.5 µM
IC50 (CYP2D6; [7]): 7.8 µM
RLM ([1]; rat liver microsomal data): 51 µL/min/mg
IC50 [2, 8]: 0.178 µM
HLM ([3]; human liver microsomal data): 32 µL/min/mg
IC50 [4, 9]: 0.202 µM

CC#Cc1cnc2c(c1)[C@@H](NC[C@@H](O)[C@H](Cc1cccc(Br)c1)NC(=O)COC)CC1(CCC1)O2 [compound 812]
IC50 (CYP3A4 (CYP3A)): 0.4 µM
IC50 (CYP2D6; [7]): 3 µM
RLM ([1]; rat liver microsomal data): 345 µL/min/mg
IC50 [2, 10]: 0.258 µM
HLM ([3]; human liver microsomal data): 260 µL/min/mg
IC50 [4, 11]: 0.954 µM

CCO[C@H](C)C(=O)N[C@@H](Cc1ccc2c(c1)OCO2)[C@H](O)CN[C@H]1CC2(CCC2)Oc2ncc(CC(C)C)cc21 [compound 808]
IC50 (CYP3A4 (CYP3A)): 0.1 µM
IC50 (CYP2D6; [7]): 2.3 µM
RLM ([1]; rat liver microsomal data): 179 µL/min/mg
IC50 [2, 10]: 0.138 µM
HLM ([3]; human liver microsomal data): 49 µL/min/mg
IC50 [4, 11]: 0.414 µM

COCC(=O)N[C@@H](Cc1cccc(F)c1)[C@H](O)CN[C@H]1CC2(CCC2)Oc2c1cc(CC(C)(C)OC)cc2-n1ccnc1.O=C(O)C(F)(F)F [Example 423]
IC50 (CYP3A4 (CYP3A)): 0.1 µM
IC50 (CYP2D6; 2D6 IC50, CYP2D6 inhibition): 0.3 µM
RLM ([1]; rat liver microsomes): 132 µL/min/mg
IC50 [2, 5]: 0.579 µM
HLM ([3]; human liver microsomes): 35 µL/min/mg
IC50 [4, 6]: 0.063 µM

CO[C@H](C)C(=O)N[C@@H](Cc1ccc2c(c1)OCO2)[C@H](O)CN[C@H]1CC2(CCC2)Oc2cnc(CC(C)C)cc21 [compound 666]
IC50 (CYP3A4 (CYP3A)): ≤ 0.03 µM
IC50 (CYP2D6; 2D6 IC50, CYP2D6 inhibition): 2.4 µM
RLM ([1]; rat liver microsomes): 228 µL/min/mg
IC50 [2, 5]: 0.124 µM
HLM ([3]; human liver microsomes): 140 µL/min/mg
IC50 [4, 6]: 0.175 µM
